{"source": "paper PMC10650415", "about": "“Synthesis of Tetracyclic Spirooxindolepyrrolidine-Engrafted Hydantoin Scaffolds: Crystallographic Analysis, Molecular Docking Studies and Evaluation of Their Antimicrobial, Anti-Inflammatory and Analgesic Activities” (Molecules, 2023)", "key": {"[1]": {"tested_on": "C. albicans ATCC 90028", "assay": "MFC by the agar method", "conditions": "for MFC: Candida albicans, ATCC90028", "protocol": "(§2) To further determine the killing efficiency of the synthesized spiropyrrolidines against selected strains, the minimum bactericidal concentration (MBC) and the minimum fungicidal concentration (MFC) were assessed by the agar method [54]."}, "[2]": {"tested_on": "C. kreusei ATCC 6258", "assay": "MFC by the agar method", "conditions": "for MFC: Pichia kudriavzevii, ATCC6258", "protocol": "as §2"}, "[3]": {"tested_on": "M. luteus NCIMB 8166", "assay": "MBC by the agar method", "conditions": "for MBC: Micrococcus luteus, NCIMB8166", "protocol": "as §2"}, "[4]": {"tested_on": "S. aureus ATCC 25923", "assay": "MBC by the agar method", "conditions": "Staphylococcus aureus, ATCC25923", "protocol": "as §2"}, "[5]": {"target": "T1, Lipoxygenase-5 (LOX-5) enzyme (Homo sapiens, UniProt P09917)", "T1 construct": "purchased sigma 437996-500U", "T1 sequence (P09917 1-674)": "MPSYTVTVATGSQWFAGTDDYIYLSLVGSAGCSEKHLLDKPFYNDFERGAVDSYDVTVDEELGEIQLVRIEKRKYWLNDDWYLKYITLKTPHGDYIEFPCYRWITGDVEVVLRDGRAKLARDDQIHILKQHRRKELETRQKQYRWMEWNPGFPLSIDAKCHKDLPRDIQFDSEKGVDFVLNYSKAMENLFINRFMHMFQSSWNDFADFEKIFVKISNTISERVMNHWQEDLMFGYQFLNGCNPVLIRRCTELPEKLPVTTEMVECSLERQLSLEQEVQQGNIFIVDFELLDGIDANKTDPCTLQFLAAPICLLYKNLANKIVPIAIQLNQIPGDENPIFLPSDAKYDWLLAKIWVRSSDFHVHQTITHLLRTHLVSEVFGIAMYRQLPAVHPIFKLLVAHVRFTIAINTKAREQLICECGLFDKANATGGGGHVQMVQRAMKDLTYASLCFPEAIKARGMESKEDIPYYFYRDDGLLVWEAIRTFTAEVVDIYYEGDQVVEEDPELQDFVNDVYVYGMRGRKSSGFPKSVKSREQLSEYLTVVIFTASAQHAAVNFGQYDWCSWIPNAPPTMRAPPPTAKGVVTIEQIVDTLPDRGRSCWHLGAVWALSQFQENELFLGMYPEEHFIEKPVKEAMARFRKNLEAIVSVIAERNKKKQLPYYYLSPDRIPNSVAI", "assay": "In vitro lipoxygenase (LOX-5) inhibitory assay", "assay_type": "biochemical", "conditions": "mean ± SEM, n = 5; read-out: IC50 (LOX-5 inhibition) (converted)", "procedure": "Lipoxygenases are a family of monomeric proteins that catalyze oxidation of polyunsaturated fatty acids (PUFA) (linoleic, linolenic and arachidonic acid) to produce hydroperoxides. Fractions’ anti-LOX activity was also measured as inhibition of linoleic acid’s peroxidation to hydroperoxylinoleic acid.\nTo evaluate the prospects of the newly synthesized spirooxindoles as promising drug candidates, we first studied their inhibitory potency against the Lipoxygenase-5 (LOX-5) enzyme."}, "[6]": {"tested_on": "P. aeruginosa ATCC 27950", "assay": "MBC by the agar method", "conditions": "Pseudomonas aeruginosa, ATCC27950", "protocol": "as §2"}, "[7]": {"tested_on": "E. coli ATCC 25922", "assay": "MBC by the agar method", "conditions": "Escherichia coli, ATCC25922, E. coli ATCC 25922", "protocol": "as §2"}, "[8]": {"tested_on": "Staphylocoocus aureus ATCC 25923", "assay": "MIC, in vitro micro diffusion method", "assay_type": "cell-based", "conditions": "Staphylococcus aureus, ATCC25923; S. aureus ATCC 25923", "from_the_text": "(§1) In this part, the spiropyrrolidines 4a–m were selected to be screening for their antimicrobial activities, using in vitro micro diffusion method, against multiple bacterial strains (Staphylocoocus aureus ATCC 25923, Escherichia coli ATCC 25922, Pseudomonas aeruginosa ATCC 27950, Micrococcus luteus NCIMB 8166), and two pathogenic reference yeasts namely Candida albicans ATCC 90028 and Candida kreusei ATCC 6258."}, "[9]": {"tested_on": "Candida albicans ATCC 90028", "assay": "MIC, in vitro micro diffusion method", "assay_type": "cell-based", "conditions": "ATCC90028, C. albicans ATCC 90028", "from_the_text": "as §1"}, "[10]": {"tested_on": "Candida kreusei ATCC 6258", "assay": "MIC, in vitro micro diffusion method", "assay_type": "cell-based", "conditions": "C. krusei ATCC 6258", "from_the_text": "as §1"}, "[11]": {"parameters": "method as in doi:10.1002/slct.201901228", "conditions": "read-out: IC50 (anti-inflammatory efficacy); cited from earlier work"}, "[12]": {"tested_on": "Escherichia coli ATCC 25922", "assay": "MIC, in vitro micro diffusion method", "assay_type": "cell-based", "conditions": "ATCC25922, E. coli ATCC 25922"}, "[13]": {"tested_on": "Micrococcus luteus NCIMB 8166", "assay": "MIC, in vitro micro diffusion method", "assay_type": "cell-based", "conditions": "NCIMB8166, M. luteus NCIMB 8166", "from_the_text": "as §1"}}, "data": [{"compound": "O=C1NC(=O)[C@]2(N1)[C@@H](c1ccc(Cl)cc1)[C@H](c1ccccc1)N[C@@]21C(=O)Nc2ccccc21", "note": "(racemic) [4e]", "values": [{"measurement": "melting point", "result": 235, "unit": "°C"}, {"measurement": "MFC/MIC ratio", "setting": "[1]; C. Albicans, ≤ 4 fungicidal, >4 fungistatic", "result": "≤ 4"}, {"measurement": "MFC", "setting": "[1]", "result": 23.4, "unit": "µg/mL"}, {"measurement": "MFC/MIC ratio", "setting": "[2]; C. Krusei, ≤ 4 fungicidal, >4 fungistatic", "result": "≤ 4"}, {"measurement": "MFC", "setting": "[2]", "result": 46.9, "unit": "µg/mL"}, {"measurement": "MBC", "setting": "[3]", "result": "> 1500", "unit": "µg/mL"}, {"measurement": "MBC", "setting": "[4]", "result": 93.8, "unit": "µg/mL"}, {"measurement": "IC50", "setting": "[5]", "result": 3.86, "unit": "mM"}, {"measurement": "MBC", "setting": "[6]", "result": 188, "unit": "µg/mL"}, {"measurement": "MBC", "setting": "[7]", "result": 750, "unit": "µg/mL"}, {"measurement": "MIC", "setting": "[8]", "result": 46.9, "unit": "µg/mL"}, {"measurement": "MIC", "setting": "[9]", "result": 23.4, "unit": "µg/mL"}, {"measurement": "MIC", "setting": "[10]", "result": 46.9, "unit": "µg/mL"}]}, {"compound": "CC(C)Cc1ccc(C(C)C(=O)O)cc1", "note": "(centres unmarked) [ibuprofen]", "values": [{"measurement": "IC50", "setting": "[11]", "result": "0.0112 ± 0.0019", "unit": "mM"}]}, {"compound": "O=C1/C(=C/c2cccc(F)c2)CCC[C@@]12[C@H](c1cccc(F)c1)[C@@H]1CSCN1[C@]21C(=O)Nc2ccccc21", "note": "[IVc]", "values": [{"measurement": "IC50", "setting": "[11]", "result": "0.0024 ± 0.0013", "unit": "mM"}]}, {"compound": "COc1ccc([C@H]2[C@H](c3ccccc3)N[C@@]3(C(=O)Nc4ccc(Cl)cc43)[C@@]23NC(=O)NC3=O)cc1", "note": "(racemic) [4c]", "values": [{"measurement": "melting point", "result": 211, "unit": "°C"}, {"measurement": "MFC", "setting": "[1]", "result": 46.9, "unit": "µg/mL"}, {"measurement": "MFC", "setting": "[2]", "result": "> 1500", "unit": "µg/mL"}, {"measurement": "MBC/MIC ratio", "setting": "[3]; M. luteus, ≤ 4 bactericidal, >4 bacteriostatic", "result": 8}, {"measurement": "MBC", "setting": "[3]", "result": 750, "unit": "µg/mL"}, {"measurement": "MBC", "setting": "[4]", "result": 188, "unit": "µg/mL"}, {"measurement": "IC50", "setting": "[5]", "result": 4.42, "unit": "mM"}, {"measurement": "MBC", "setting": "[6]", "result": 93.8, "unit": "µg/mL"}, {"measurement": "MBC", "setting": "[7]", "result": 188, "unit": "µg/mL"}, {"measurement": "MIC", "setting": "[12]", "result": 188, "unit": "µg/mL"}, {"measurement": "MIC", "setting": "[13]", "result": 93.8, "unit": "µg/mL"}]}]}
